Measurements reported in BindingDB's records for doi:10.1016/j.ejmech.2021.113204 (Shandong University, 2021).

Legend:
[1] = Inhibition of reverse transcriptase L100I mutant in HIV-1 infected in human MT4 cells assessed as reduction in virus-induced cytopathic effect incubated for 5 days by MTT assay
[2] = Inhibition of reverse transcriptase Y188L mutant in HIV-1 infected in human MT4 cells assessed as reduction in virus-induced cytopathic effect incubated for 5 days by MTT assay
[3] = Inhibition of reverse transcriptase E138K mutant in HIV-1 infected in human MT4 cells assessed as reduction in virus-induced cytopathic effect incubated for 5 days by MTT assay
[4] = Inhibition of reverse transcriptase F227L/V106A double mutant in HIV-1 infected in human MT4 cells assessed as reduction in virus-induced cytopathic effect incubated for 5 days by MTT assay
[5] = Inhibition of reverse transcriptase K103N mutant in HIV-1 infected in human MT4 cells assessed as reduction in virus-induced cytopathic effect incubated for 5 days by MTT assay

SMILES | EC50 [1] | EC50 [2] | EC50 [3] | EC50 [4] | EC50 [5]
Cc1cc(/C=C/C#N)cc(C)c1Oc1nc(Nc2ccc(CN3CCN(S(N)(=O)=O)CC3)cc2)nc2ccsc12 | 43 nM | 544 nM | 26 nM | 175 nM | 
Cc1cc(/C=C/C#N)cc(C)c1Oc1nc(Nc2ccc(CN3CCN(S(C)(=O)=O)CC3)cc2)nc2ccsc12 | 1560 nM | > 20700 nM | 983 nM | 2200 nM | 356 nM
Cc1cc(/C=C/C#N)cc(C)c1Oc1nc(Nc2ccc(CN3CCN(S(N)(=O)=O)CC3)cc2)nc2sccc12 | 15 nM | 877 nM | 25 nM | 369 nM | 7 nM
Cc1cc(/C=C/C#N)cc(C)c1Oc1nc(Nc2ccc(CN3CCN(S(C)(=O)=O)CC3)cc2)nc2sccc12 | 387 nM | 9410 nM | 162 nM | 1640 nM | 54 nM
Cc1cc(/C=C/C#N)cc(C)c1Oc1nc(Nc2ccc(N3CCN(S(N)(=O)=O)CC3)cc2)nc2ccsc12 | 767 nM | 23100 nM | 43 nM | 203 nM | 21 nM
Cc1cc(/C=C/C#N)cc(C)c1Oc1nc(Nc2ccc(N3CCN(S(C)(=O)=O)CC3)cc2)nc2ccsc12 | 938 nM | 5110 nM | 88 nM | 285 nM | 56 nM
Cc1cc(/C=C/C#N)cc(C)c1Oc1nc(Nc2ccc(N3CCN(S(N)(=O)=O)CC3)cc2)nc2sccc12 | 409 nM | 10100 nM | 50 nM | 331 nM | 31 nM
Cc1cc(/C=C/C#N)cc(C)c1Oc1nc(Nc2ccc(N3CCN(S(C)(=O)=O)CC3)cc2)nc2sccc12 | 3320 nM | 68400 nM | 405 nM | 1950 nM | 219 nM
Cc1cc(/C=C/C#N)cc(C)c1Oc1nc(Nc2ccc(N3CCCC(NS(N)(=O)=O)C3)cc2)nc2ccsc12 (stereo unspecified) | 1660 nM | 6750 nM | 123 nM | 381 nM | 102 nM
Cc1cc(/C=C/C#N)cc(C)c1Oc1nc(Nc2ccc(N3CCCC(NS(C)(=O)=O)C3)cc2)nc2ccsc12 (stereo unspecified) | 6820 nM | 150000 nM | 1280 nM | 16800 nM | 
Cc1cc(/C=C/C#N)cc(C)c1Oc1nc(Nc2ccc(N3CCCC(NS(N)(=O)=O)C3)cc2)nc2sccc12 (stereo unspecified) | 2330 nM | 88200 nM | 621 nM | 3640 nM | 450 nM
Cc1cc(/C=C/C#N)cc(C)c1Oc1nc(Nc2ccc(N3CCCC(NS(C)(=O)=O)C3)cc2)nc2sccc12 (stereo unspecified) | 8520 nM |  | 4270 nM |  | 1360 nM
